According to ChEMBL document CHEMBL1138460, “Synthesis of a new opioid ligand having the oxabicyclo[3.2.1]octane skeleton using a new rearrangement reaction” (Bioorg Med Chem Lett, 2009):
pKi: −log10 of the molar value.

Key:
[1] = Displacement of [3H]NTI from delta opioid receptor in guinea pig forebrain; design: species or system Cavia porcellus
[2] = target: Mu-type opioid receptor (Cavia porcellus, UniProt P97266); test: Displacement of [3H]DAMGO from mu opioid receptor in guinea pig forebrain
[3] = target: Kappa-type opioid receptor (Cavia porcellus, UniProt P41144); test: Displacement of [3H]U69593 from kappa opioid receptor in guinea pig cerebellum; type: tissue-based
[4] = target: Opioid receptor (mu and kappa) (Cavia porcellus) (UniProt P41144+P97266); test: Ratio of Ki for guinea pig mu opioid receptor to Ki for guinea pig kappa opioid receptor
Sequence of Opioid receptor (mu and kappa) (Cavia porcellus) (P41144 whole entry, looked up): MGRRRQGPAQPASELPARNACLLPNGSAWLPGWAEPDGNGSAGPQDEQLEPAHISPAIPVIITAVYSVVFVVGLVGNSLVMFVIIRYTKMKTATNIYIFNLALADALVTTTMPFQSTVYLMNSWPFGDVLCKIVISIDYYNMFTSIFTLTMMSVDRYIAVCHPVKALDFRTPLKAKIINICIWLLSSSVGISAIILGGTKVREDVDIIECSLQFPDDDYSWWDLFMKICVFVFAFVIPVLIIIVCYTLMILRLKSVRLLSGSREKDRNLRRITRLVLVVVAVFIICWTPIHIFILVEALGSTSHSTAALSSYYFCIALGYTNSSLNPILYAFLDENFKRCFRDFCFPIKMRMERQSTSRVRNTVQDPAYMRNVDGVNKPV
Sequence of Opioid receptor (mu and kappa) (Cavia porcellus) (P97266 whole entry, looked up): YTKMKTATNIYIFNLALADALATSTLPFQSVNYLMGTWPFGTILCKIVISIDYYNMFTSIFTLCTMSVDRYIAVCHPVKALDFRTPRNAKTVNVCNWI

Sequence of Mu-type opioid receptor (P97266 whole entry): as the sequence (P97266 whole entry, looked up) above
Sequence of Kappa-type opioid receptor (P41144 whole entry): as the sequence (P41144 whole entry, looked up) above

SMILES	pKi [1]	pKi [2]	pKi [3]	Ratio Ki [4]
OC[C@]12CC[C@@]3(O1)[C@H]1Cc4ccc(O)cc4[C@@]3(CCN1CC1CC1)C2	8.46	9.84	9.99	1.42
O=C1CC[C@@]2(O)[C@H]3Cc4ccc(O)c5c4[C@@]2(CCN3CC2CC2)[C@H]1O5 [NALTREXONE]	7.68			
O=C1C[C@]23CCN(CC4CC4)[C@H](Cc4ccc(O)cc42)[C@]32CC[C@H]1O2	8.16	9.40	9.63	1.7
